According to US12497365B2, “4-pyridinyl formamide compound or derivative thereof, preparation method therefor, herbicidal composition and use thereof” (Qingdao Kingagroot Chemical Compound Co., Ltd., priority 2019, dated 2025):

What was measured:
Test in all cases: Weeding effect in post-emergence stage
Format in all cases: in vivo
Conditions in all cases: active ingredient 2000 g/ha, 3 weeks after application, fresh weight control rate
[1] = test system: Amaranthus retroflexus L.
Procedure, shortened: (§1)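 Seeds were covered with 0.5-2 cm soil and raised in a greenhouse for 2 weeks. At the 2-3 leaf stage, compound formulations (acetone, Tween 80, 1.5 liter/ha methyl oleate EC, water) were spray-tower applied at 2000-125 g/ha. After 3 further weeks, fresh weight control was graded.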

[2] = test system: Descurainia sophia
Procedure, shortened: as §1

[3] = test system: Abutilon theophrasti
Procedure, shortened: as §1

[4] = test system: Chenopodium album
Procedure, shortened: as §1

SMILES	Weeding effect, activity level (growth control rate), Amaranthus retroflexus L. [1]	Weeding effect, activity level (growth control rate), Descurainia sophia [2]	Weeding effect, activity level (growth control rate), Abutilon theophrasti [3]	Weeding effect, activity level (growth control rate), Chenopodium album [4]
Cn1nnnc1NC(=O)c1ccnc(C2CCCCC2)c1Cl [Compound 1-4]	5 (Level 5: growth control rate is above 85%)	5 (Level 5: growth control rate is above 85%)	5 (Level 5: growth control rate is above 85%)	5 (Level 5: growth control rate is above 85%)
Cn1nnnc1NC(=O)c1ccnc(-c2cnc(Cl)nc2)c1Cl [Compound 1-157]	5 (Level 5: growth control rate is above 85%)	5 (Level 5: growth control rate is above 85%)	5 (Level 5: growth control rate is above 85%)	5 (Level 5: growth control rate is above 85%)
Cn1nnnc1NC(=O)c1ccnc(-c2ccc(C#N)c(F)c2)c1Cl [Compound 1-79]	5 (Level 5: growth control rate is above 85%)	5 (Level 5: growth control rate is above 85%)	5 (Level 5: growth control rate is above 85%)	5 (Level 5: growth control rate is above 85%)
Cn1nnnc1NC(=O)c1ccnc(-c2ccc(F)cc2C#N)c1Cl [Compound 1-83]	5 (Level 5: growth control rate is above 85%)	5 (Level 5: growth control rate is above 85%)	5 (Level 5: growth control rate is above 85%)	5 (Level 5: growth control rate is above 85%)
Cc1ccc(-c2nccc(C(=O)Nc3nnnn3C)c2Cl)cc1 [Compound 1-11]	5 (Level 5: growth control rate is above 85%)	5 (Level 5: growth control rate is above 85%)	5 (Level 5: growth control rate is above 85%)	5 (Level 5: growth control rate is above 85%)
Cn1nnnc1NC(=O)c1ccnc(-c2ccc(C#N)cc2F)c1Cl [Compound 1-78]	5 (Level 5: growth control rate is above 85%)	5 (Level 5: growth control rate is above 85%)	5 (Level 5: growth control rate is above 85%)	5 (Level 5: growth control rate is above 85%)
CC(C)c1c(C(=O)Nc2nnnn2C)ccnc1-c1ccc(F)cc1 [Compound 1-197]	5 (Level 5: growth control rate is above 85%)	5 (Level 5: growth control rate is above 85%)	5 (Level 5: growth control rate is above 85%)	5 (Level 5: growth control rate is above 85%)
Cc1nnc(-c2nccc(C(=O)Nc3nnnn3C)c2Cl)s1 [Compound 1-249]	5 (Level 5: growth control rate is above 85%)	5 (Level 5: growth control rate is above 85%)	5 (Level 5: growth control rate is above 85%)	5 (Level 5: growth control rate is above 85%)
Cn1nnnc1NC(=O)c1ccnc(-c2ccc(F)c3ccccc23)c1Cl [Compound 1-113]	5 (Level 5: growth control rate is above 85%)	5 (Level 5: growth control rate is above 85%)	5 (Level 5: growth control rate is above 85%)	5 (Level 5: growth control rate is above 85%)
COc1ncc(-c2nccc(C(=O)Nc3nnnn3C)c2Cl)c(OC)n1 [Compound 1-162]	5 (Level 5: growth control rate is above 85%)	5 (Level 5: growth control rate is above 85%)	5 (Level 5: growth control rate is above 85%)	5 (Level 5: growth control rate is above 85%)
COc1ccc(CSc2nccc(C(=O)Nc3nnnn3C)c2Cl)cc1 [Compound 1-2069]	5 (Level 5: growth control rate is above 85%)	5 (Level 5: growth control rate is above 85%)	5 (Level 5: growth control rate is above 85%)	5 (Level 5: growth control rate is above 85%)
Cn1nnnc1NC(=O)c1ccnc(-c2ccc(F)c(F)c2)c1Cl [Compound 1-66]	5 (Level 5: growth control rate is above 85%)	5 (Level 5: growth control rate is above 85%)	5 (Level 5: growth control rate is above 85%)	5 (Level 5: growth control rate is above 85%)
Cn1nnnc1NC(=O)c1ccnc(-c2cccc3cnccc23)c1Cl [Compound 1-114]	5 (Level 5: growth control rate is above 85%)	5 (Level 5: growth control rate is above 85%)	5 (Level 5: growth control rate is above 85%)	5 (Level 5: growth control rate is above 85%)
Cn1nnnc1NC(=O)c1ccnc(-c2ccc(F)cc2C(F)(F)F)c1Cl [Compound 1-73]	5 (Level 5: growth control rate is above 85%)	5 (Level 5: growth control rate is above 85%)	5 (Level 5: growth control rate is above 85%)	5 (Level 5: growth control rate is above 85%)
Cn1nnnc1NC(=O)c1ccnc(-c2ccc(O)cc2)c1Cl [Compound 1-35]	5 (Level 5: growth control rate is above 85%)	5 (Level 5: growth control rate is above 85%)	5 (Level 5: growth control rate is above 85%)	5 (Level 5: growth control rate is above 85%)
Cn1nnnc1NC(=O)c1ccnc(-c2cccc(C#N)n2)c1Cl [Compound 1-120]	5 (Level 5: growth control rate is above 85%)	5 (Level 5: growth control rate is above 85%)	5 (Level 5: growth control rate is above 85%)	5 (Level 5: growth control rate is above 85%)
COc1ccc(-c2nccc(C(=O)Nc3nnnn3C)c2Cl)c(C)c1 [Compound 1-104]	5 (Level 5: growth control rate is above 85%)	5 (Level 5: growth control rate is above 85%)	5 (Level 5: growth control rate is above 85%)	5 (Level 5: growth control rate is above 85%)
Cc1cccc(C)c1-c1nccc(C(=O)Nc2nnnn2C)c1Cl [Compound 1-58]	5 (Level 5: growth control rate is above 85%)	5 (Level 5: growth control rate is above 85%)	5 (Level 5: growth control rate is above 85%)	5 (Level 5: growth control rate is above 85%)
Cn1nnnc1NC(=O)c1ccnc(-c2ccnc(C#N)c2)c1Cl [Compound 1-148]	5 (Level 5: growth control rate is above 85%)	5 (Level 5: growth control rate is above 85%)	5 (Level 5: growth control rate is above 85%)	5 (Level 5: growth control rate is above 85%)
COc1cccc(-c2nccc(C(=O)Nc3nnnn3C)c2Cl)c1F [Compound 1-72]	5 (Level 5: growth control rate is above 85%)	5 (Level 5: growth control rate is above 85%)	5 (Level 5: growth control rate is above 85%)	5 (Level 5: growth control rate is above 85%)
Cn1nnnc1NC(=O)c1ccnc(-c2ccc(F)cc2)c1C=C(F)F [Compound 1-222]	5 (Level 5: growth control rate is above 85%)	5 (Level 5: growth control rate is above 85%)	5 (Level 5: growth control rate is above 85%)	5 (Level 5: growth control rate is above 85%)
CCCn1cc(-c2nccc(C(=O)Nc3nnnn3C)c2Cl)cn1 [Compound 1-173]	5 (Level 5: growth control rate is above 85%)	5 (Level 5: growth control rate is above 85%)	5 (Level 5: growth control rate is above 85%)	5 (Level 5: growth control rate is above 85%)
